In patent US12303505B2, “Tumor-treating pharmaceutical composition” (Eisai R&D Management Co., Ltd., priority 2017, dated 2025):
Counter-ions that a name gives are not always drawn.

How the values were obtained:
Type in all cases: in vivo
[1] = system: human melanoma cell line SEKI; assay: Antitumor effect in human melanoma cell line SEKI transplantation model, nude mice
Protocol: A human melanoma cell line SEKI (JCRB Cell Bank) was cultured by using RPMI1640 medium (Sigma-Aldrich Co. LLC) containing 10% FBS in a 5% CO2 incubator under conditions of 37° C. When the cells became an approximately 80% confluent state, the cells were recovered by using trypsin-EDTA. A suspension was prepared by adding Hank's balanced salt solution containing 50% Matrigel to the cells so as to be 5.0×10^7 cells/mL. 0.1 mL of the obtained cell suspension was subcutaneously transplanted to the sides of the bodies of six nude mice (CAnN.Cg-Foxn1^nu/CrlCrlj, Charles River Laboratories Japan, Inc.) each of a control group, an E7386 12.5 or 25 mg/kg alone administration group, a lenvatinib mesylate 10 mg/kg alone administration group, and a combined administration group of 12.5 or 25 mg/kg E7386 and 10 mg/kg lenvatinib mesylate. From 13 days after the transplantation, E7386 (12.5 or 25 mg/kg, b.d.s., 14 days, oral administration) and lenvatinib mesylate (10 mg/kg, q.d., 14 days, oral administration) were administered alone or in combination to the alone administration group or the combined administration group. For the administration, E7386 was dissolved in 0.1 mol/L hydrochloric acid, and lenvatinib mesylate was dissolved in 3 mmol/L hydrochloric acid. 0.1 mol/L hydrochloric acid (b.d.s., 14 days) was administered to the control group.
When the start day of administration was defined as day 1, the major axis and minor axis of tumor developed in each mouse were then measured at day 4, day 8, day 11, and day 15 by using Digimatic Caliper (Mitutoyo Corp.).
(§1) The tumor volume and the relative tumor volume (RTV) were calculated according to the following expressions. Tumor volume (mm^3)=Tumor major axis (mm)×Tumor minor axis^2 (mm^2)/2 Relative tumor volume (RTV)=Tumor volume at the measurement day/Tumor volume at the start day of administration

[2] = system: Human hepatocellular carcinoma line HepG2 cells; assay: Antitumor effect in human hepatocellular carcinoma line HepG2 subcutaneous transplantation model, nude mice
Protocol: Human hepatocellular carcinoma line HepG2 cells (JCRB Cell Bank) were cultured by using DMEM-Low glucose medium (Wako Pure Chemical Industries, Ltd.) containing 10% FBS in a 5% CO2 incubator under conditions of 37° C. When the cells became an approximately 80% confluent state, the cells were recovered by using trypsin-EDTA. A suspension was prepared by adding phosphate-buffered saline containing 50% Matrigel to the cells so as to be 10.0×10^7 cells/mL. 0.1 mL of the obtained cell suspension was subcutaneously transplanted to the sides of the bodies of five nude mice (CAnN.Cg-Foxn1^nu/CrlCrlj, Charles River Laboratories Japan, Inc.) each of a control group, an E7386 50 mg/kg alone administration group, a lenvatinib mesylate 10 mg/kg alone administration group, and a combined administration group of 50 mg/kg E7386 and 10 mg/kg lenvatinib mesylate. From 12 days after the transplantation, E7386 (50 mg/kg, b.d.s., 14 days, oral administration) and lenvatinib mesylate (10 mg/kg, q.d., 14 days, oral administration) were administered alone or in combination to the alone administration group or the combined administration group. For the administration, E7386 was dissolved in 0.1 mol/L hydrochloric acid, and lenvatinib mesylate was dissolved in 3 mmol/L hydrochloric acid. Any drug was not administered to the control group.
When the start day of administration was defined as day 1, the major axis and minor axis of tumor developed in each mouse were then measured at day 4, day 7, day 9, day 13, and day 15 by using Digimatic Caliper (Mitutoyo Corp.).
as §1

[3] = system: Human colorectal cancer line Colo-205 cells; assay: Antitumor effect in human colorectal cancer line Colo-205 transplantation model, nude mice
Protocol: Human colorectal cancer line Colo-205 cells (ATCC) were cultured by using RPMI1640 medium (Wako Pure Chemical Industries, Ltd.) containing 10% FBS in a 5% CO2 incubator under conditions of 37° C. When the cells became an approximately 80% confluent state, the cells were recovered by using trypsin-EDTA. A suspension was prepared by adding Hank's balanced salt solution to the cells so as to be 5.0×10^7 cells/mL. 0.1 mL of the obtained cell suspension was subcutaneously transplanted to the sides of the bodies of five nude mice (CAnN.Cg-Foxn1^nu/CrlCrlj, Charles River Laboratories Japan, Inc.) each of a control group, an E7386 50 mg/kg alone administration group, a lenvatinib mesylate 10 mg/kg alone administration group, and a combined administration group of 50 mg/kg E7386 and 10 mg/kg lenvatinib mesylate. From 8 days after the transplantation, E7386 (50 mg/kg, q.d., 11 days, oral administration) and lenvatinib mesylate (10 mg/kg, q.d., 11 days, oral administration) were administered alone or in combination to the alone administration group or the combined administration group. For the administration, E73 86 was dissolved in 0.1 mol/L hydrochloric acid, and lenvatinib mesylate was dissolved in 3 mmol/L hydrochloric acid. Any drug was not administered to the control group.
When the start day of administration was defined as day 1, the major axis and minor axis of tumor developed in each mouse were then measured at day 4, day 8, and day 12 by using Digimatic Caliper (Mitutoyo Corp.).
as §1

[4] = Day 4, lenvatinib mesylate 10 mg/kg q.d. oral alone
[5] = Day 8, lenvatinib mesylate 10 mg/kg q.d. oral alone
[6] = Day 15, lenvatinib mesylate 10 mg/kg q.d. oral alone

## C=CCN1CC(=O)N2[C@@H](Cc3ccc(O)cc3F)C(=O)N(Cc3cccc(N4CC(N5CCN(CC)CC5)C4)n3)C[C@@H]2N1C(=O)NCc1ccccc1 [E7386, (6S,9aS)—N-Benzyl-8-({6-[3-(4-ethylpiperazin-1-yl)azetidin-1-yl]pyridin-2-yl}methyl)-6-(2-fluoro-4-hydroxybenzyl)-4,7-dioxo-2-(prop-2-en-1-yl)hexahydro-2H-pyrazino[2,1-c][1,2,4]triazine-1(6H)-carboxamide]
[1]; Day 4, E7386 12.5 mg/kg b.d.s. oral alone
  Relative tumor volume (RTV), mean±SD: 1.65 ± 0.22
[1]; Day 4, E7386 25 mg/kg b.d.s. oral alone
  Relative tumor volume (RTV), mean±SD: 1.56 ± 0.21
[1]; Day 8, E7386 12.5 mg/kg b.d.s. oral alone
  Relative tumor volume (RTV), mean±SD: 3.02 ± 0.31
[1]; Day 8, E7386 25 mg/kg b.d.s. oral alone
  Relative tumor volume (RTV), mean±SD: 2.94 ± 0.22
[1]; Day 11, E7386 12.5 mg/kg b.d.s. oral alone
  Relative tumor volume (RTV), mean±SD: 4.19 ± 0.80
[1]; Day 11, E7386 25 mg/kg b.d.s. oral alone
  Relative tumor volume (RTV), mean±SD: 4.35 ± 0.36
[1]; Day 15, E7386 12.5 mg/kg b.d.s. oral alone
  Relative tumor volume (RTV), mean±SD: 5.53 ± 1.21
[1]; Day 15, E7386 25 mg/kg b.d.s. oral alone
  Relative tumor volume (RTV), mean±SD: 5.90 ± 1.34
[2]; Day 4, E7386 50 mg/kg b.d.s. oral alone
  Relative tumor volume (RTV), mean±SD: 1.45 ± 0.23
[2]; Day 7, E7386 50 mg/kg b.d.s. oral alone
  Relative tumor volume (RTV), mean±SD: 3.05 ± 0.57
[2]; Day 9, E7386 50 mg/kg b.d.s. oral alone
  Relative tumor volume (RTV), mean±SD: 3.96 ± 0.53
[2]; Day 13, E7386 50 mg/kg b.d.s. oral alone
  Relative tumor volume (RTV), mean±SD: 5.60 ± 1.02
[2]; Day 15, E7386 50 mg/kg b.d.s. oral alone
  Relative tumor volume (RTV), mean±SD: 6.23 ± 1.39
[3]; Day 4, E7386 50 mg/kg q.d. oral alone
  Relative tumor volume (RTV), mean±SD: 1.98 ± 0.24
[3]; Day 8, E7386 50 mg/kg q.d. oral alone
  Relative tumor volume (RTV), mean±SD: 3.87 ± 0.74
[3]; Day 12, E7386 50 mg/kg q.d. oral alone
  Relative tumor volume (RTV), mean±SD: 4.94 ± 1.41

## COc1cc2nccc(Oc3ccc(NC(=O)NC4CC4)c(Cl)c3)c2cc1C(N)=O [Lenvatinib mesylate, 4-(3-chloro-4-(cyclopropylaminocarbonyl)aminophenoxy)-7-methoxy-6-quinolinecarboxamide, reference compound]
[1]; [4]
  Relative tumor volume (RTV), mean±SD: 1.60 ± 0.22
[1]; [5]
  Relative tumor volume (RTV), mean±SD: 2.66 ± 0.46
[1]; Day 11, lenvatinib mesylate 10 mg/kg q.d. oral alone
  Relative tumor volume (RTV), mean±SD: 3.81 ± 0.80
[1]; [6]
  Relative tumor volume (RTV), mean±SD: 4.67 ± 1.19
[2]; [4]
  Relative tumor volume (RTV), mean±SD: 1.10 ± 0.08
[2]; Day 7, lenvatinib mesylate 10 mg/kg q.d. oral alone
  Relative tumor volume (RTV), mean±SD: 1.60 ± 0.94
[2]; Day 9, lenvatinib mesylate 10 mg/kg q.d. oral alone
  Relative tumor volume (RTV), mean±SD: 2.07 ± 0.88
[2]; Day 13, lenvatinib mesylate 10 mg/kg q.d. oral alone
  Relative tumor volume (RTV), mean±SD: 2.70 ± 1.47
[2]; [6]
  Relative tumor volume (RTV), mean±SD: 3.43 ± 1.46
[3]; [4]
  Relative tumor volume (RTV), mean±SD: 1.41 ± 0.30
[3]; [5]
  Relative tumor volume (RTV), mean±SD: 1.75 ± 0.13
[3]; Day 12, lenvatinib mesylate 10 mg/kg q.d. oral alone
  Relative tumor volume (RTV), mean±SD: 1.94 ± 0.31
